Laboratory results taken from publication PMC3537142 (EMBO Reports, 2012).
Numbering of substitutions follows the chain as printed.

Key:
[1] = molecular target: T1, 5HTBP construct A1 B2 D1W (Aplysia californica, UniProt Q8WSF8, K160T/S111E/V159L/Y72W); assay: SPR biosensor assay; details: construct A1B2D1W; stated for both [3H]granisetron binding and SPR
T1 sequence (Q8WSF8 20-236 Y72W/S111E/V159L/K160T): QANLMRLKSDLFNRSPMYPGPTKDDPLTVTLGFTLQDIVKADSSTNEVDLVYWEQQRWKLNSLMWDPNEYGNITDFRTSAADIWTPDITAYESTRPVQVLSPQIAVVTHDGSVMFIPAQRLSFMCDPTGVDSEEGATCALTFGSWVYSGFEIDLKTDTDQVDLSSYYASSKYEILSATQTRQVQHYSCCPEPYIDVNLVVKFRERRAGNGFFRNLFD

AChBPs = details: ref [4], [5]; cited from earlier work
[2] = molecular target: T2, 5HTBP construct D2 (Y53W, Q55R) (Aplysia californica, UniProt Q8WSF8, Q74R/Y72W); assay: Competition binding with [3H]granisetron; details: read-out: Granisetron Ki, [3H]granisetron binding
T2 sequence (Q8WSF8 20-236 Y72W/Q74R): T1 sequence (Q8WSF8 20-236 Y72W/S111E/V159L/K160T) with Q55R, E92S, L140V, T141K

[3] = molecular target: T3, 5HTBP construct A1 (S92E) (Aplysia californica, UniProt Q8WSF8, S111E); assay: Competition binding with [3H]granisetron; details: read-out: Ki, [3H]granisetron binding; single mutant construct A1 (S92E)
T3 sequence (Q8WSF8 20-236 S111E): T1 sequence (Q8WSF8 20-236 Y72W/S111E/V159L/K160T) with W53Y, L140V, T141K

[4] = molecular target: T4, construct A2NE (Y91N, S92E) (Aplysia californica, UniProt Q8WSF8, S111E/Y110N); assay: [3H]granisetron binding to single-loop construct
T4 sequence (Q8WSF8 20-236 Y110N/S111E): T1 sequence (Q8WSF8 20-236 Y72W/S111E/V159L/K160T) with W53Y, Y91N, L140V, T141K

construct C5 = molecular target: T5, construct C5 (Aplysia californica, UniProt Q8WSF8, C207M/C208E/E210S/P209S/P211N); assay: [3H]granisetron binding to single-loop construct
T5 sequence (Q8WSF8 20-236 C207M/C208E/P209S/E210S/P211N): T1 sequence (Q8WSF8 20-236 Y72W/S111E/V159L/K160T) with W53Y, E92S, L140V, T141K, C188M, C189E, P190S, E191S, P192N

construct C6 = molecular target: T6, construct C6 (Aplysia californica, UniProt Q8WSF8, C207E/C208S/E210N/INS206M/P209S/P211Y); assay: [3H]granisetron binding to single-loop construct
T6 sequence (Q8WSF8 with tags, fused parts or gaps INS206M/C207E/C208S/P209S/E210N/P211Y): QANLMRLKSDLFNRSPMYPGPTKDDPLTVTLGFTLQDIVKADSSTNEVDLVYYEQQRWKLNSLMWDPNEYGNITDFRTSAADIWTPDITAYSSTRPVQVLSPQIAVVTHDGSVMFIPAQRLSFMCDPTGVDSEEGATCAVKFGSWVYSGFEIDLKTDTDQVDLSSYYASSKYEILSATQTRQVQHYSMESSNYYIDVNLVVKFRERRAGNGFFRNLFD

construct E3 = molecular target: T7, construct E3 (Aplysia californica, UniProt Q8WSF8, I123Y/I135Y/V125Y); assay: [3H]granisetron binding to single-loop construct
T7 sequence (Q8WSF8 20-236 I123Y/V125Y/I135Y): T1 sequence (Q8WSF8 20-236 Y72W/S111E/V159L/K160T) with W53Y, E92S, I104Y, V106Y, I116Y, L140V, T141K

construct E1 = molecular target: T8, construct E1 (Aplysia californica, UniProt Q8WSF8, I135Y); assay: [3H]granisetron binding to single-loop construct
T8 sequence (Q8WSF8 20-236 I135Y): T1 sequence (Q8WSF8 20-236 Y72W/S111E/V159L/K160T) with W53Y, E92S, I116Y, L140V, T141K

5HTBP construct A1 B2 D2 = molecular target: T9, 5HTBP construct A1 B2 D2 (Aplysia californica, UniProt Q8WSF8, K160T/Q74R/S111E/V159L/Y72W); assay: Competition binding with [3H]granisetron; details: NB = no binding
T9 sequence (Q8WSF8 20-236 Y72W/Q74R/S111E/V159L/K160T): T1 sequence (Q8WSF8 20-236 Y72W/S111E/V159L/K160T) with Q55R

In the case of `NCCc1c[nH]c2ccc(O)cc12` [Serotonin, 5-hydroxytryptamine], the “increase in the affinity compared with wild-type Ac-AChBP” value [1] is given as ~40 fold and the “lower affinity than acetylcholine” value (AChBPs) is given as ~60 fold.

For `CN1C2CCCC1CC(NC(=O)c1nn(C)c3ccccc13)C2` (stereo not shown) [[^3H]granisetron, [3H]BRL-43694], the Ki [2] was 454 ± 71 nM, the Ki [3] was 270 ± 51 nM and the “[3H]granisetron binding” value [4] was “failed to bind”. For the same compound, the “[3H]granisetron binding” value (construct C5) was “did not show detectable [^3H]granisetron binding”, the “[3H]granisetron binding” value (construct C6) was “did not show detectable [^3H]granisetron binding” and the “[3H]granisetron binding” value (construct E3) was “no detectable [^3H]granisetron binding”. For the same compound, the “[3H]granisetron binding” value (construct E1) was “no detectable [^3H]granisetron binding” and the “Granisetron Ki, [3H]granisetron binding” value (5HTBP construct A1 B2 D2) was “no longer bound”.
